Here are results for 21 molecules from patent publication US8378117B2 (priority 2005, dated 2013).

The target of assay [1] is T1, CB1 receptor (Homo sapiens, UniProt P21554).
T1 construct: expressed in transfected cells
Kind of assay: Binding assay for CB1 agonists or inverse agonists (SK-N-MC membranes, [3H]-CP-55,940). The note with it: for inhibition at 1 µM: read-out: CB1 receptor binding percent inhibition, test concentration 1 μM (footnote 1). The method, then: (§1) The human CB1 and CB2 receptors were stably expressed in SK-N-MC cells transfected with pcDNA3 CB-1 (human) or pcDNA3 CB-2 (human). The cells were grown in T-180 cell culture flasks under standard cell culture conditions at 37° C. in a 5% CO2 atmosphere. The cells were harvested by trysinization and homogenized in a homogenization buffer (10 mM Tris, 0.2 mM MgCl2, 5 mM KCl, with protease inhibitors aprotinin, leupeptin, pepstatin A and bacitracin) and centrifuged (2000 g). The supernatant was then centrifuged in 2M sucrose (31,300 g) to produce a semi-purified membrane pellet. The pellet was resuspended in homogenization and stored at −80° C.
(§2) On the day of the assay, the pellet was thawed on ice and diluted in assay buffer (50 mM Tris-HCl, 5 mM MgCl2, 2.5 mM EDTA, 0.5 mg/mL fatty acid free bovine serum aldumin, pH 7.5). The diluted membrane pellet was added with buffer, either a test compound or vehicle standard and the radioligand [H]^3+-CP-55,940 (0.2 mM) to the wells of a 96-well polypropylene plate. Non-specific binding was measured in wells containing WIN 55,212 (10 uM). The plate was covered and incubated for 90 minutes at 30° C. The contents were then aspirated onto a Packard Unifilter GF/C filter bottom plate prewet with 0.5% polyethyleneimine. The wells of the polypropylene plate were rinsed and aspirated seven times with a 0.9% saline-0.5% Tween 20 solution. The Unifilter plate was dried, a scintillation cocktail was added to each well and the counts representing binding were quantitated in a TopCount scintillation counter.
(§3) For compounds tested, an IC50 binding value was obtained from percent inhibition studies in which various test concentrations were used. The binding value was calculated by linear regression.

The target in assay [2] is T2, CB2 receptor (Homo sapiens, UniProt P34972).
T2 construct: expressed in transfected cells
Description: Binding assay for CB2 agonists or inverse agonists (SK-N-MC membranes, [3H]-CP-55,940). The conditions noted are these: for CB2 receptor binding percent inhibition: test concentration not stated. On the procedure:
as §1
as §2, with “The diluted membrane pellet was added with buffer, either a test compound or vehicle standard and the radioligand [H]^3+-CP-55,940 (0.2 mM) to the wells of a 96-well polypropylene plate. Non-specific binding was measured in wells containing WIN 55,212 (10 uM).” left out
as §3

T2 sequence (P34972 whole entry): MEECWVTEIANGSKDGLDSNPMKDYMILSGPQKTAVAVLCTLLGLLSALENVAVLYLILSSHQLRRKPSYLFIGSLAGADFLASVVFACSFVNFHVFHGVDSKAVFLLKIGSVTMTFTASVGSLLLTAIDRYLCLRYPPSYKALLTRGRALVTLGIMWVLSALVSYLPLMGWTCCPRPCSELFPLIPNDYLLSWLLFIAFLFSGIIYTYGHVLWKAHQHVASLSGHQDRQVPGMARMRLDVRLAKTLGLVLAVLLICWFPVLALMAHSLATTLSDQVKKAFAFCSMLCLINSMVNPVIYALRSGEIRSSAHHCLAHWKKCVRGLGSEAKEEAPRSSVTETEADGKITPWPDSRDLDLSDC
T1 sequence (P21554 whole entry): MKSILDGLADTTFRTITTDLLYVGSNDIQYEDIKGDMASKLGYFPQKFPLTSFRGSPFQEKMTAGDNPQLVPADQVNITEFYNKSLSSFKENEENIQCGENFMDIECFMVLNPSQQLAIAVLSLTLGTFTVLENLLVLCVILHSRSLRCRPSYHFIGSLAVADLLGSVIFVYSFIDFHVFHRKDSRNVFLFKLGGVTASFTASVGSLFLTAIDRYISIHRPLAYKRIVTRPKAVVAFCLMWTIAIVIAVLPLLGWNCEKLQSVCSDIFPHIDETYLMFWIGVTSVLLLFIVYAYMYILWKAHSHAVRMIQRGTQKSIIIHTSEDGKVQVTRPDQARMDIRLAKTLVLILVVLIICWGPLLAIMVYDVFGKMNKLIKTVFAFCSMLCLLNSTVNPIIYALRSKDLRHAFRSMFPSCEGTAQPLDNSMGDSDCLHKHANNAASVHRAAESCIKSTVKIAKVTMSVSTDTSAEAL

By IC50 is commonly meant the concentration that inhibits the measured activity by half. `C[C@H](NC(=O)c1nn(C2CCCCC2)c2c1CCCCC2Cc1cccc(Cl)c1)c1ccccc1` (stereo partly drawn) [Cpd 7, 8-(3-chloro-benzyl)-1-cyclohexyl-1,4,5,6,7,8-hexahydro-cycloheptapyrazole-3-carboxylic acid [(1S)-1-phenyl-ethyl]-amide]: the IC50 in assay [1] (calculated by linear regression from percent inhibition at various test concentrations, read-out: Cannabinoid CB1 Receptor Binding IC50) was 1100 nM. In addition, the inhibition at 1 µM in assay [1] amounted to 68%. For the same molecule, the “CB2 receptor binding percent inhibition” value in assay [2] is reported as 12%.
Consider `O=C(NC12CC3CC(CC1C3)C2)c1nn(C2CCCCC2)c2c1CCCCC2Cc1cccc(Cl)c1` (centres unmarked) [Cpd 9, 8-(3-chloro-benzyl)-1-cyclohexyl-1,4,5,6,7,8-hexahydro-cycloheptapyrazole-3-carboxylic acid (hexahydro-2,5-methano-pentalen-3a-yl)-amide], for which the inhibition at 1 µM in assay [1] was determined as 18%. The “CB2 receptor binding percent inhibition” value in assay [2] is 4%.
The matching figures for `CC(NC(=O)c1nn(C2CCCCC2)c2c1CCCCC2Cc1cccc(Cl)c1)C12CC3CC(CC(C3)C1)C2` (centres unmarked) [Cpd 10, 8-(3-chloro-benzyl)-1-cyclohexyl-1,4,5,6,7,8-hexahydro-cycloheptapyrazole-3-carboxylic acid (1-adamantan-1-yl-ethyl)-amide]: 0% and 8%.
For `CC12CCC(C1)C(C)(C)[C@H]2NC(=O)c1nn(C2CCCCC2)c2c1CCCCC2Cc1ccccc1Cl` (stereo partly drawn) [Cpd 11, 8-(2-chloro-benzyl)-1-cyclohexyl-1,4,5,6,7,8-hexahydro-cycloheptapyrazole-3-carboxylic acid [(2S)-1,3,3-trimethyl-bicyclo[2.2.1]hept-2-yl]-amide], in that order: 17% and 21%.
With `O=C(NC1C2CC3CC(C2)CC1C3)c1nn(C2CCCCC2)c2c1CCCCC2Cc1cccc(Cl)c1` (centres unmarked) [Cpd 12, 8-(3-chloro-benzyl)-1-cyclohexyl-1,4,5,6,7,8-hexahydro-cycloheptapyrazole-3-carboxylic acid adamantan-2-ylamide], the inhibition at 1 µM in assay [1] came out at 36%. In assay [2], the “CB2 receptor binding percent inhibition” value was found to be 31%.
In the case of `O=C(NC1C2CC3CC(C2)CC1C3)c1nn(C2CCCCC2)c2c1CCCCC2Cc1ccccc1Cl` (centres unmarked) [Cpd 13, 8-(2-chloro-benzyl)-1-cyclohexyl-1,4,5,6,7,8-hexahydro-cycloheptapyrazole-3-carboxylic acid adamantan-2-ylamide], in assay [1], the inhibition at 1 µM worked out at 0%. In assay [2], the “CB2 receptor binding percent inhibition” value was determined as 14%.
Turning to `CC12CCC(C1)C(C)(C)[C@H]2NC(=O)c1nn(-c2ccc(Cl)cc2Cl)c2c1CCCCC2Cc1ccc(Cl)cc1` (stereo partly drawn) [Cpd 14, 8-(4-chloro-benzyl)-1-(2,4-dichloro-phenyl)-1,4,5,6,7,8-hexahydro-cycloheptapyrazole-3-carboxylic acid [(2S)-1,3,3-trimethyl-bicyclo[2.2.1]hept-2-yl]-amide], the inhibition at 1 µM in assay [1] worked out at 29%. Besides, in assay [2], the “CB2 receptor binding percent inhibition” value is reported as 7%.
For `CC12CCC(C1)C(C)(C)[C@H]2NC(=O)c1nn(-c2ccc(Cl)cc2Cl)c2c1CCCCC2Cc1cccc(Cl)c1` (stereo partly drawn) [Cpd 15, 8-(3-chloro-benzyl)-1-(2,4-dichloro-phenyl)-1,4,5,6,7,8-hexahydro-cycloheptapyrazole-3-carboxylic acid [(2S)-1,3,3-trimethyl-bicyclo[2.2.1]hept-2-yl]-amide], in that order: 58% and 54%.
The matching figures for `O=C(NC1C2CC3CC(C2)CC1C3)c1nn(C2CCCCC2)c2c1CCCCC2Cc1ccc(Cl)cc1` (centres unmarked) [Cpd 16, 8-(4-chloro-benzyl)-1-cyclohexyl-1,4,5,6,7,8-hexahydro-cycloheptapyrazole-3-carboxylic acid adamantan-2-ylamide]: 21% and 68%.
The matching figures for `O=C(NC1C2CC3CC(C2)CC1C3)c1nn(-c2ccc(Cl)cc2Cl)c2c1CCCCC2Cc1cccc(Cl)c1` (centres unmarked) [Cpd 17, 8-(3-chloro-benzyl)-1-(2,4-dichloro-phenyl)-1,4,5,6,7,8-hexahydro-cycloheptapyrazole-3-carboxylic acid adamantan-2-ylamide]: 37% and 11%.
For the molecule `O=C(NC1C2CC3CC(C2)CC1C3)c1nn(-c2ccc(Cl)cc2Cl)c2c1CCCCC2Cc1ccc(Cl)cc1` (centres unmarked) [Cpd 18, 8-(4-chloro-benzyl)-1-(2,4-dichloro-phenyl)-1,4,5,6,7,8-hexahydro-cycloheptapyrazole-3-carboxylic acid adamantan-2-ylamide], the inhibition at 1 µM in assay [1] came to 3%. Besides, the “CB2 receptor binding percent inhibition” value in assay [2] was determined as 23%.
For `O=C(NC12CC3CC(CC(C3)C1)C2)c1nn(C2CCCCC2)c2c1CCCCC2Cc1cccc(Cl)c1` (centres unmarked) [Cpd 19, 8-(3-chloro-benzyl)-1-cyclohexyl-1,4,5,6,7,8-hexahydro-cycloheptapyrazole-3-carboxylic acid adamantan-1-ylamide], in that order: 18% and 51%.
For `O=C(NC12CC3CC(CC(C3)C1)C2)c1nn(C2CCCCC2)c2c1CCCCC2Cc1ccc(Cl)cc1` (centres unmarked) [Cpd 20, 8-(4-chloro-benzyl)-1-cyclohexyl-1,4,5,6,7,8-hexahydro-cycloheptapyrazole-3-carboxylic acid adamantan-1-ylamide], in that order: 4% and 28%.
With `O=C(NC12CC3CC(CC(C3)C1)C2)c1nn(C2CCCCC2)c2c1CCCCC2Cc1ccccc1Cl` (centres unmarked) [Cpd 21, 8-(2-chloro-benzyl)-1-cyclohexyl-1,4,5,6,7,8-hexahydro-cycloheptapyrazole-3-carboxylic acid adamantan-1-ylamide], the inhibition at 1 µM in assay [1] was determined as 32%. For the same molecule, the “CB2 receptor binding percent inhibition” value in assay [2] worked out at 26%.
The matching figures for `O=C(NC12CC3CC(CC(C3)C1)C2)c1nn(-c2ccc(Cl)cc2Cl)c2c1CCCCC2Cc1cccc(Cl)c1` (centres unmarked) [Cpd 22, 8-(3-chloro-benzyl)-1-(2,4-dichloro-phenyl)-1,4,5,6,7,8-hexahydro-cycloheptapyrazole-3-carboxylic acid adamantan-1-ylamide]: 58% and 25%.
`O=C(NC1CCC1)c1nn(C2CCCCC2)c2c1CCCCC2Cc1ccccc1Cl` (centres unmarked) [Cpd 23, 8-(2-chloro-benzyl)-1-cyclohexyl-1,4,5,6,7,8-hexahydro-cycloheptapyrazole-3-carboxylic acid cyclobutylamide]: the inhibition at 1 µM in assay [1] was 0%. Moreover, the “CB2 receptor binding percent inhibition” value in assay [2] stood at 24%.
Take `O=C(NC1CCC1)c1nn(-c2ccc(Cl)cc2Cl)c2c1CCCCC2Cc1cccc(Cl)c1` (centres unmarked) [Cpd 24, 8-(3-chloro-benzyl)-1-(2,4-dichloro-phenyl)-1,4,5,6,7,8-hexahydro-cycloheptapyrazole-3-carboxylic acid cyclobutylamide]: the inhibition at 1 µM in assay [1] was 28%. In addition, the “CB2 receptor binding percent inhibition” value in assay [2] was determined as 0%.
The matching figures for `O=C(NN1CCCCC1)c1nn(-c2ccc(Cl)cc2Cl)c2c1CCCCC2Cc1ccc(Cl)cc1` (centres unmarked) [Cpd 27, 8-(4-chloro-benzyl)-1-(2,4-dichloro-phenyl)-1,4,5,6,7,8-hexahydro-cycloheptapyrazole-3-carboxylic acid piperidin-1-ylamide]: 0% and 0%.
Take `O=C(NC1CCC1)c1nn(Cc2ccc(Cl)cc2)c2c1CCCCC2Cc1cccc(Cl)c1` (centres unmarked) [Cpd 29, 1-(4-chloro-benzyl)-8-(3-chloro-benzyl)-1,4,5,6,7,8-hexahydro-cycloheptapyrazole-3-carboxylic acid cyclobutylamide]: in assay [1], the inhibition at 1 µM is 13%. Also, in assay [2], the “CB2 receptor binding percent inhibition” value was determined as 18%.
For the molecule `O=C(NC1CCC1)c1nn(Cc2ccc(Cl)cc2)c2c1CCCCC2Cc1ccc(Cl)cc1` (centres unmarked) [Cpd 30, 1,8-bis-(4-chloro-benzyl)-1,4,5,6,7,8-hexahydro-cycloheptapyrazole-3-carboxylic acid cyclobutylamide], the inhibition at 1 µM in assay [1] came to 28%; in assay [2] (test concentration 1 μM (footnote 1), read-out: CB2 receptor binding percent inhibition), 65%. Further, the IC50 in assay [2] (calculated by linear regression from percent inhibition at various test concentrations, read-out: Cannabinoid CB2 Receptor Binding IC50) was 600 nM.
On to `O=C(NC1CC1)c1nn(C2CCCCC2)c2c1CCCCC2Cc1ccccc1Cl` (centres unmarked) [Cpd 31, 8-(2-chloro-benzyl)-1-cyclohexyl-1,4,5,6,7,8-hexahydro-cycloheptapyrazole-3-carboxylic acid cyclopropylamide], for which the inhibition at 1 µM in assay [1] worked out at 0%. In addition, the “CB2 receptor binding percent inhibition” value in assay [2] is listed as 35%.
